Article PMC3722118, “Hellebrin and its aglycone form hellebrigenin display similar in vitro growth inhibitory effects in cancer cells and binding profiles to the alpha subunits of the Na^+/K^+-ATPase” (Molecular Cancer, 2013)
Like-named read-outs stand apart in the source and are kept apart here.

What was measured:
NHDF fibroblasts = experiment: MTT growth inhibition in non-cancerous control cell line; type: cell-based; conditions: normal human fibroblasts, read-out: in vitro growth inhibitory effects (IC50) in NHDF fibroblasts
Text: The histological types and origins of the eight human cancer cell lines that were used for the MTT colorimetric assay are detailed in the legend of Table 1. Two mouse cancer cell lines were also used, the CT26.WT colon cancer cell line (ATCC code CRL-2638) and the B16F10 melanoma cell line (ATCC code CRL-6475). Both cell lines were obtained from the American Type Culture Collection (ATCC, Manassas, VA). A control cell line (human NHDF fibroblasts) was obtained from PromoCell (code c-12300; Heidelberg, Germany). The cell lines detailed in Figure 2A are a generous gift from the National Cancer Institute (NCI, Bethesda, USA) to Steven Karlish’s lab.
The cancer cells were cultured in RPMI (Lonza, Verviers, Belgium) medium supplemented with 10% heat-inactivated fetal calf serum (Lonza). All culture media were supplemented with 4 mM glutamine, 100 μg/mL gentamicin, 200 U/mL penicillin and 200 μg/mL streptomycin (Lonza). The NHDF fibroblasts were cultured in Lonza medium cc3132 KT FGM-2 BulletKit.
The overall growth level of the human cancer cell lines was determined using a colorimetric MTT (3-(4,5-dimethylthiazol-2yl)-2,5-diphenyltetrazolium bromide, Sigma, Belgium) assay as detailed previously. Briefly, this test measures the number of metabolically active (thus living) cells that are able to transform the yellow MTT into the blue formazan dye via a mitochondrial reduction involving succinate dehydrogenase. The amount of formazan obtained at the end of the experiment (measured by spectrophotometry) is directly proportional to the number of living cells. The determination of the optical density in the control compared to the treated cells therefore enables quantitative measurements of the effects of compounds on the growth of normal as well as cancer cells in vitro.
Each experimental condition was performed in six replicates.

[1] = system: KB-3-1 and ABCB1-overexpressing KB-C-1 cells; experiment: MTT viability, MDR model; type: cell-based, human; conditions: 72 hours
Text: (§1) The following human cancer cell lines and their chemoresistant sublines were used in this study: the colon carcinoma cell line HCT-116 p53/wt and the p53 knock-out cell line HCT-116 p53/ko (generously donated by B. Vogelstein, Johns Hopkins University, Baltimore, MD, USA); the epidermal carcinoma-derived cell line KB-3-1 and the ABCB1-overexpressing subline KB-C-1 (generously donated by D.W. Shen, Bethesda, USA); the small cell lung carcinoma cell line GLC-4 and the ABCC1- and LRP-overexpressing subline GLC-4/ADR (from E.G. de Vries, Groningen, Netherlands); the ovarian carcinoma cell line A2780 and the cisplatin resistant subline A2780cis (purchased from Sigma-Aldrich); and the promyelocytic leukemia cell line HL60 and the mitoxantrone resistant subline HL60/mx (generously donated by G. Harker, Salt Lake City, USA). All cell lines were grown in RPMI 1640 supplemented with 10% fetal bovine serum with the exception of the HCT-116 cells, which were grown in McCoy’s medium with 10% serum.
(§2) Figure 4 Impact of different MDR mechanisms on the cytotoxicity of hellebrigenin. […] Viability was determined using a 3-(4,5-dimethythiazol-2-yl)-2,5-diphenyltetrazolium bromide (MTT) colorimetric assay. […]

[2] = system: GLC-4 and ABCC1- and LRP-overexpressing GLC-4/ADR small cell lung carcinoma cells; experiment: MTT viability, MDR model; type: cell-based, human; conditions: 72 hours
Text: as §1, §2

MDR cancer cell models = experiment: MTT viability in several MDR cancer cell models; type: cell-based, human; conditions: overexpression of ABC-transporters and/or altered glutathione metabolism, 72 hours
Text: as §1, §2

[3] = system: HCT-116 p53/wt and HCT-116 p53/ko colon carcinoma cells; experiment: MTT viability, p53 wild-type versus knock-out model; type: cell-based, human; conditions: 72 hours
Text: as §1, §2

U373 GBM cells = conditions: 10 nM
Experimental: Computer-assisted phase contrast microscopy (quantitative videomicroscopy) analyses were used to morphologically visualize the effects induced by hellebrin (data not shown) and hellebrigenin (Figure 5) in human U373 GBM cells.
Figure 5 Computer-assisted phase-contrast microscopy (quantitative videomicroscopy) illustrations of human U373 glioblastoma cells treated with 10 nM hellebrigenin for 72 h. […] Cells were not starved during the experiments. The images provided here are representative images obtained from triplicates in each experimental condition.

HT-29 colon cancer cells = experiment: O2 consumption rate (MitoXpress assay); type: cell-based, human; conditions: compounds at their IC50 (MTT), 24 h

| Compound | IC50 (NHDF fibroblasts) [µM] | sensitivity of KB-C-1 compared to parental cell line [1] | sensitivity of GLC4/ADR compared to parental cell line [2] | activity in several MDR cancer cell models versus parental cells (MDR cancer cell models) | in vitro growth inhibitory activity in p53 wild-type versus p53KO HCT-116 cells [3] | U373 GBM cells died (U373 GBM cells; 72 h of treatment) | cytotoxic versus cytostatic nature (morphological analyses) (U373 GBM cells; up to 72 h) | IC50 (NHDF fibroblasts; NHDF) [µM] | O2 consumption rate (cell respiration) (HT-29 colon cancer cells) |
| --- | --- | --- | --- | --- | --- | --- | --- | --- | --- |
| C[C@]12CC[C@H]3[C@@H](CC[C@]4(O)C[C@@H](O)CC[C@]34C=O)[C@@]1(O)CC[C@@H]2c1ccc(=O)oc1 [Hellebrigenin] | > 10 | equally sensitive | equally sensitive | equally active | similar | approximately 50% | cytotoxic compound and not a cytostatic one |  |  |
| C[C@@H]1O[C@@H](O[C@H]2CC[C@]3(C=O)[C@H]4CC[C@]5(C)[C@@H](c6ccc(=O)oc6)CC[C@]5(O)[C@@H]4CC[C@]3(O)C2)[C@H](O)[C@H](O)[C@H]1O[C@@H]1O[C@H](CO)[C@@H](O)[C@H](O)[C@H]1O [Hellebrin] |  |  |  | equally active | similar |  |  | > 10 | significantly reduced |
